Results reported in patent US12138273B2 (Propella Therapeutics, Inc., priority 2019, dated 2024).

What was measured:
[1] = dog, in vivo
Description: An additional study was done using dogs as the animal model instead of rats.

[2] = Beagle, dog, in vivo

| SMILES | irritation at the injection site [1] | % F ([1]; male) [%] | measurable blood levels out to ([1]; male) [h] | AUCINF/Dose ([1]; male, im) | mean AUCINF following IM administration, corrected for dose and time units [2] [ng·h/mL] |
| --- | --- | --- | --- | --- | --- |
| CC(=O)O[C@H]1CC[C@@]2(C)C(=CC[C@@H]3[C@@H]2CC[C@]2(C)C(c4cccnc4)=CC[C@@H]32)C1 [abiraterone acetate] | irritating to the dogs at the injection site | 61.7 | 504 | 329 | – |
| C[C@]12CC[C@H](O)CC1=CC[C@@H]1[C@@H]2CC[C@]2(C)C(c3cccnc3)=CC[C@@H]12 [abiraterone, (3β)-17-(pyridin-3-yl) androsta-5, 16-dien-3-ol] | – | – | – | – | 105 |
